# Entries after “also recorded” stand apart in the source; their conditions may differ.
# Legend:
# [1] = system: infant foreskin fibroblasts; assay: Fibroblast chemotaxis in modified Boyden chambers (incl. checkerboard and deactivation studies); format: cell-based, human; details: for fibroblast chemotaxis / migration (in words): peptide in lower compartment of modified Boyden chamber; for chemotactic response of fibroblasts to peptide with fibronectin in upper chamber (in words): unrelated chemoattractant fibronectin in the upper chamber; for Mean Fibroblasts per 20 OIF + SEM: Experiment 1, lower compartment: TGF-β1 50 pg/ml, peptide 368-374 1.4 × 10^-5 M, peptide 364-378 6.7 × 10^-7 M, fibronectin 20 μg/ml
# Description: Target cells used in in vitro chemotaxis assays were infant foreskin fibroblasts obtained by establishing monolayer cultures from explants of tissue. Cells were maintained in Eagle's minimum essential medium (MEM) supplemented with non-essential amino acids, antibiotics, 50 ug/ml ascorbic acid, and 9% fetal calf serum (FCS). Cells were passaged by trypsinization every 3-5 days.
# Infant foreskin fibroblasts were harvested from monolayer culture by gentle trypsinization, washed twice in serum-free Eagles's MEM and adjusted to a final concentration of 250,000 cells/ml. The cell suspension (0.4 ml) was added to the upper compartments of blind well modified Boyden chemotaxis chambers. The peptides of the invention being assayed for chemotactic activity were solubilized in glycylglycine (0.015M) buffered NaCl (0.14M), pH 7.2, hereinafter referred to as GGBS, and diluted 50% with serum-free MEM. Test substances were added to the lower compartment of the chemotaxis chambers. Gelatin-treated polycarbonate filters (8 micron pore size) were interposed between the lowest compartment and the upper cell compartment. Loaded chambers were incubated at 37° C. in a humidified atmosphere containing 5% CO2 for 150 minutes. After incubation, the chambers were disassembled, the filters removed, stained with hematoxylin, and mounted on glass cover slips. Fibroblast chemotaxis was quantitated by counting the number of fibroblasts in 20 oil immersion fields (OIF) that migrated and adhered to the lower surface of each filter. Samples were tested in quadruplicate and results are expressed as mean number of fibroblasts per 20 OIF±standard error of the mean (SEM). Chemotaxis neutralization studies were performed by adding TGF-β1 or fibronectin to the upper cell compartment and testing for effects on fibroblast migration to the TGF-β peptides.
# Zigmond-Hirsch checkerboard analysis (Zigmond & Hirsch, J. Exptl. Med. 137:387, 1972) was performed to determine whether the 7-mer peptide 368-374 (Val Tyr Tyr Val Gly Arg Lys) induced chemotaxis of fibroblasts, monocytes and neutrophils.
# Deactivation studies were utilized to determine whether the peptides of the invention containing the 7-mer peptide amino acid sequence induced chemotaxis via cellular receptors and mechanisms utilized by intact TGF-β.
# [2] = system: infant foreskin fibroblasts; assay: Collagen production by fibroblasts (modified Peterofsky-Diegelman assay); format: cell-based, human; details: [3H]proline incorporation into collagenase-sensitive protein
# Description: The peptides of the invention were also found to stimulate collagen production by fibroblasts. Collagen production by fibroblasts in response to the peptides of the present invention was measured utilizing a modified Peterofsky-Diegelman assay. The assay is used to determine whether the peptides of the invention stimulate or inhibit collagen production by fibroblasts.
# Low passage (4-12 subpassages) infant foreskin fibroblasts were plated out at a density of 10^5 cells/well in Falcon 3008 multiwell plates in complete maintenance medium containing 10% FCS. After cells reached confluency (72 hr), the medium was changed daily for 3 days, each time being replaced with serum-free maintenance medium containing fresh ascorbic acid. Samples (50 μl) were added to triplicate wells containing 450 μl serum-free MEM supplemented with fresh ascorbic acid and [^3 H]-proline (sp. act. 20 Ci/mmole), but no non-essential amino acids. After an additional 24 hr of culture, supernatants were reacted with protease-free bacterial collagenase to digest all collagen. Similar aliquots of unreacted supernatants and bacterial collagenase-treated supernatants were precipitated with cold 10% trichloroacetic acid (TCA) and were centrifuged for 5 minutes in a Beckman microfuge. Aliquots of the supernatants, after TCA precipitated proteins were pelleted, were placed in vials containing Hydrofluor and then were counted in a scintillation counter. CPM from TCA precipitated supernatants not reacted with bacterial collagenase were subtracted from each culture. The resulting CPM was a reflection of the collagen produced by that culture.
# A modified Peterofsky-Diegelmann assay was used to screen peptide samples for their ability to stimulate or inhibit collagen production. Low passage (4-12 subpassages) infant foreskin fibroblast were plated out at a density of 10^5 cells/well of Falcon 3008 multiwell plates in complete maintenance medium containing 10% FCS. After cells reached confluency (72 hr) the medium was changed daily for 3 days, each time being replaced with serum-free maintenance medium containing fresh ascorbic acid. Samples ([…]) were added to triplicate wells containing […] serum free MEM supplemented with fresh ascorbic acid and [^3 H]-proline (sp. act. 20 Ci/mmole), but no non-essential amino acids. After an additional 24 hours of culture, supernatants were reacted with protease-free bacterial collagenase to digest all collagen. Similar aliquots of unreacted supernatants and bacterial collagenase-treated supernatants were precipitated with cold 10% trichloroacetic acid (TCA) and were centrifuged for 5 minutes in a Beckman microfuge. Aliquots of the supernatants, after TCA precipitated proteins were pelleted, were placed in vials containing Hydrofluor and then were counted in a scintillation counter. CPM from TCA precipitated supernatants not reacted with bacterial collagenase were subtracted from each culture. The resulting CPM was a reflection of the collagen produced by that culture.
# Collagen production was measured following administration of the various 7-mer peptides 368-374 (SEQ ID NOs. 1-5) to fibroblasts. Peptides […] (SEQ ID NO. 1), LYYIGKT (SEQ ID NO. 2), LYYVGRT (SEQ ID NO. 3), IYYVGRN (SEQ ID NO. 4) and IYYVGRT (SEQ ID NO. 5) were synthesized by the Merrifield technique, purified by HPLC, and tested at different concentrations in the same assay for their ability to stimulate production of collagen in confluent cultures of infant foreskin fibroblasts. Collagen production was measured by incorporation of [^3 H]proline into collagenase-sensitive protein. All samples were tested in triplicate, and values represent the mean of triplicate determinations. Data are expressed as "% stimulation" of collagen production relative to control production in cultures with plain culture medium only added. […]
# [3] = system: Human peripheral blood neutrophils; assay: Neutrophil chemotaxis in modified Boyden chambers; format: cell-based; details: peptide in lower compartment of modified Boyden chamber
# Excerpt: Human peripheral blood neutrophils and monocytes, isolated from whole blood using standard techniques may also be used in the chemotaxis assays, in a manner similar to infant foreskin fibroblasts, to measure the chemotactic activity of the peptides towards inflammatory cells. Such cells may also be maintained in supplemented MEM as above, to which 5-10% FCS may be added. When using neutrophils and monocytes, instead of fibroblasts, the polycarbonate filters used in the modified Boyden chambers had pore sizes of 2 and 3 microns, respectively. As above, all assays were carried out in quadruplicate.
# [4] = Media added to upper compartment
# [5] = TGF-β1 (50 pg/ml) added to upper compartment
Substance,fibroblast chemotaxis / migration (in words) [1],chemotactic response of fibroblasts to peptide with fibronectin in upper chamber (in words) [1],collagen production by fibroblasts (in words) [2],"Mean Fibroblasts per 20 OIF + SEM [1, 4] [Fibroblasts per 20 OIF]","Mean Fibroblasts per 20 OIF + SEM [1, 5] [Fibroblasts per 20 OIF]",neutrophil chemotaxis / migration (in words) [3],also measured
YSKVLALYNQHNPGASAAPC (YSKVLALYNQHNPGASAAPC) [Peptide 337-356],has the ability to induce fibroblast chemotaxis,No such inhibition was seen,stimulated to some degree,–,–,–,–
"PLPIVYYVGRKPKVE [Peptide 364-378, 15-mer peptide 364-378 of TGF-β1]","induced migration of fibroblasts, monocytes and neutrophils in a dose dependent fashion",No such inhibition was seen,stimulated to some degree,122 ± 8,37 ± 5,"induced migration of fibroblasts, monocytes and neutrophils in a dose dependent fashion",–
340-391: synthetic peptide corresponding to sequence 340-391 of TGF-β1; positive chemotactic control (VLALYNQHNPGASAAPCCVPQALEPLPIVYYVGRKPKVEQLSNMIVRSCKCS; printed: Val Leu Ala Leu Tyr Asn Gln His Asn Pro Gly Ala Ser Ala Ala Pro Cys Cys Val Pro Gln Ala Leu Glu Pro Leu Pro Ile Val Tyr Tyr Val Gly Arg Lys Pro Lys Val Glu Gln Leu Ser Asn Met Ile Val Arg Ser Cys Lys Cys Ser) [Peptide 340-391],migrated in a dose dependent fashion,–,stimulated to some degree,–,–,migrated in a dose dependent fashion,–
"VYYVGRK [Peptide 368-374, 7-mer corresponding to amino acids 368-374 of TGF-β1]","does stimulate fibroblast chemotaxis and synthesis of collagen and hyaluronic acid; also recorded: induced migration of fibroblasts, monocytes and neutrophils in a dose dependent fashion; also recorded: induced primarily chemotaxis of fibroblasts",No such inhibition was seen,stimulated to some degree; also recorded: does stimulate fibroblast chemotaxis and synthesis of collagen and hyaluronic acid,75 ± 2,23 ± 1,"induced migration of fibroblasts, monocytes and neutrophils in a dose dependent fashion","Fibroblasts per 20 OIF (mean ± SEM) ([1]; checkerboard: upper compartment 0, lower compartment 1.4 × 10^-6 M): 38 ± 2 Fibroblasts per 20 OIF; Fibroblasts per 20 OIF (mean ± SEM) ([1]; checkerboard: upper compartment 0, lower compartment 7.0 × 10^-6 M): 58 ± 5 Fibroblasts per 20 OIF; Fibroblasts per 20 OIF (mean ± SEM) ([1]; checkerboard: upper compartment 0, lower compartment 7.0 × 10^-7 M): 20 ± 3 Fibroblasts per 20 OIF; Fibroblasts per 20 OIF (mean ± SEM) ([1]; checkerboard: upper compartment 1.4 × 10^-6 M, lower compartment 0): 9 ± 1 Fibroblasts per 20 OIF; Fibroblasts per 20 OIF (mean ± SEM) ([1]; checkerboard: upper compartment 1.4 × 10^-6 M, lower compartment 1.4 × 10^-6 M): 9 ± 1 Fibroblasts per 20 OIF; Fibroblasts per 20 OIF (mean ± SEM) ([1]; checkerboard: upper compartment 1.4 × 10^-6 M, lower compartment 7.0 × 10^-6 M): 24 ± 2 Fibroblasts per 20 OIF; Fibroblasts per 20 OIF (mean ± SEM) ([1]; checkerboard: upper compartment 1.4 × 10^-6 M, lower compartment 7.0 × 10^-7 M): 10 ± 1 Fibroblasts per 20 OIF; Fibroblasts per 20 OIF (mean ± SEM) ([1]; checkerboard: upper compartment 7.0 × 10^-6 M, lower compartment 0): 7 ± 1 Fibroblasts per 20 OIF; Fibroblasts per 20 OIF (mean ± SEM) ([1]; checkerboard: upper compartment 7.0 × 10^-6 M, lower compartment 1.4 × 10^-6 M): 8 ± 1 Fibroblasts per 20 OIF; Fibroblasts per 20 OIF (mean ± SEM) ([1]; checkerboard: upper compartment 7.0 × 10^-6 M, lower compartment 7.0 × 10^-6 M): 11 ± 1 Fibroblasts per 20 OIF; Fibroblasts per 20 OIF (mean ± SEM) ([1]; checkerboard: upper compartment 7.0 × 10^-6 M, lower compartment 7.0 × 10^-7 M): 7 ± 1 Fibroblasts per 20 OIF; Fibroblasts per 20 OIF (mean ± SEM) ([1]; checkerboard: upper compartment 7.0 × 10^-7 M, lower compartment 0): 8 ± 1 Fibroblasts per 20 OIF; Fibroblasts per 20 OIF (mean ± SEM) ([1]; checkerboard: upper compartment 7.0 × 10^-7 M, lower compartment 1.4 × 10^-6 M): 24 ± 2 Fibroblasts per 20 OIF; Fibroblasts per 20 OIF (mean ± SEM) ([1]; checkerboard: upper compartment 7.0 × 10^-7 M, lower compartment 7.0 × 10^-6 M): 39 ± 4 Fibroblasts per 20 OIF; Fibroblasts per 20 OIF (mean ± SEM) ([1]; checkerboard: upper compartment 7.0 × 10^-7 M, lower compartment 7.0 × 10^-7 M): 10 ± 1 Fibroblasts per 20 OIF; fibroblast chemotaxis / migration (in words) ([1]; listed as VYYVGRKK): induced fibroblast chemotaxis at all of the concentration tested"
